Experimental data: patent publication US10544143B2, “4-azaindole compounds” (BRISTOL-MYERS SQUIBB COMPANY, priority 2017, dated 2020)
Read-outs that look alike come from different tables or passages of the source.

Legend:
human TLR9 = human TLR9 (Homo sapiens (Human), UniProt Q9NR96); assay: TLR9 inhibition reporter assay (HEK-Blue SEAP);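 further: SEAP driven by an IFN-β minimal promoter with NF-κB and AP-1 sites, read after 22 h, compounds dosed 0.05 nM–50 µM, inhibition scaled between agonist plus DMSO and reference-inhibitor wells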
human TLR9, sequence (Q9NR96 26-1032): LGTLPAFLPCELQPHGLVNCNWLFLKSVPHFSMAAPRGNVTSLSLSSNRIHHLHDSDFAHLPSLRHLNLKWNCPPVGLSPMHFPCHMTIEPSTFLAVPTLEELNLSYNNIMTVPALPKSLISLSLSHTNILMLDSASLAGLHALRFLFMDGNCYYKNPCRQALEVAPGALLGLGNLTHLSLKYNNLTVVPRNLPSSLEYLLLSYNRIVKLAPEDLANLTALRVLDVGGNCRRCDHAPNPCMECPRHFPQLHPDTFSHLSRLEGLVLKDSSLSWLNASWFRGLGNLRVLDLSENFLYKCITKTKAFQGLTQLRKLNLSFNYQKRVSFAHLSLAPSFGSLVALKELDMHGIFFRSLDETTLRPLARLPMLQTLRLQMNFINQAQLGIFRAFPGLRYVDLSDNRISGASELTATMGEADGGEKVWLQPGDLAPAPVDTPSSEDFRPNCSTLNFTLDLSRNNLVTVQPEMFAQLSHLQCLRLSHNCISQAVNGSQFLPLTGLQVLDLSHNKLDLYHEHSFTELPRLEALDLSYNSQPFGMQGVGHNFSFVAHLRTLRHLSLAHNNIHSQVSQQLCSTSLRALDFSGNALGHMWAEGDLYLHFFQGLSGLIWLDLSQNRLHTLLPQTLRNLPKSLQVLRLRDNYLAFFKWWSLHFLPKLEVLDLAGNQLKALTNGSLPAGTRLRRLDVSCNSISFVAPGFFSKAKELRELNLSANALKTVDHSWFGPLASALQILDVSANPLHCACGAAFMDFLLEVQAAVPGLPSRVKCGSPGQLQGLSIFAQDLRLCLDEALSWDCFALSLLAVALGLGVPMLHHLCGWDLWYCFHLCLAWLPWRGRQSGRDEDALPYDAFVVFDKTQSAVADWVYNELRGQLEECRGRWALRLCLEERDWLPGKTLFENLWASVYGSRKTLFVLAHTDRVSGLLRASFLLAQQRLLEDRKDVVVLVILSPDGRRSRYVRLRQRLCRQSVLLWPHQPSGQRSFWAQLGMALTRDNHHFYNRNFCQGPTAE

human TLR7 = human TLR7 (Homo sapiens (Human), UniProt Q9NYK1); assay: TLR7 inhibition reporter assay (HEK-Blue SEAP); type: cell-based
human TLR7, sequence (Q9NYK1 27-1049): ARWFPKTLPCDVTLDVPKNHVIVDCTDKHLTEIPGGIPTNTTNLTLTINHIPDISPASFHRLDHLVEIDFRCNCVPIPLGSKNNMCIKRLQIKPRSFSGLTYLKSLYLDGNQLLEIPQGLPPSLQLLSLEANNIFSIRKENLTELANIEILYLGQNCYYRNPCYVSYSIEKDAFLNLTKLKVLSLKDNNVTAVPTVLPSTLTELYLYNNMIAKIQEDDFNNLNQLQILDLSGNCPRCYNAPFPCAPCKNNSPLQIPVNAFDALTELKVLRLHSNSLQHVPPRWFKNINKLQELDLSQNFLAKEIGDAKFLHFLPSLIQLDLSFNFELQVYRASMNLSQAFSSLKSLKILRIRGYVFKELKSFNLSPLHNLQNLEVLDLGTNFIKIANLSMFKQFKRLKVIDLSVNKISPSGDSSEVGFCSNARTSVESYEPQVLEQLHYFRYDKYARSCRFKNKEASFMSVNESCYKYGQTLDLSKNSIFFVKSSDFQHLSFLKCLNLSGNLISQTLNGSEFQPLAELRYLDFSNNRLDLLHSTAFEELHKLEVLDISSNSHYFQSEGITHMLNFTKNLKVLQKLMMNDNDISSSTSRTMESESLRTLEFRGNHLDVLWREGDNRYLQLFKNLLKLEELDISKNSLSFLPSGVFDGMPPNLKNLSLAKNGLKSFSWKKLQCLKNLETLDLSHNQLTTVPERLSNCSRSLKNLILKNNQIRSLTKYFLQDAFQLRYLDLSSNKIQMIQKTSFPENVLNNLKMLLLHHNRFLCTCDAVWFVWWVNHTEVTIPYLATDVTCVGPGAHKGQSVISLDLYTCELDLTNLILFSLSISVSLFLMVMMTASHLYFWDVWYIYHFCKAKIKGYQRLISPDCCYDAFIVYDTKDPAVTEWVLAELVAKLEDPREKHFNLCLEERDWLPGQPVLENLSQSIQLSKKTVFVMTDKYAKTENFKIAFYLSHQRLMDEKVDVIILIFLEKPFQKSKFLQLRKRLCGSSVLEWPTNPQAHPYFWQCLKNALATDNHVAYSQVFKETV

human TLR8 = human TLR8 (Homo sapiens (Human), UniProt Q9NR97); assay: TLR8 inhibition reporter assay (HEK-Blue SEAP);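 further: SEAP driven by IFN-β minimal promoter carrying NF-κB and AP-1 sites, compounds dosed 0.05 nM to 50 µM for 22 h, inhibition scaled between agonist-plus-DMSO and reference-inhibitor wells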
human TLR8, sequence (Q9NR97 27-1041): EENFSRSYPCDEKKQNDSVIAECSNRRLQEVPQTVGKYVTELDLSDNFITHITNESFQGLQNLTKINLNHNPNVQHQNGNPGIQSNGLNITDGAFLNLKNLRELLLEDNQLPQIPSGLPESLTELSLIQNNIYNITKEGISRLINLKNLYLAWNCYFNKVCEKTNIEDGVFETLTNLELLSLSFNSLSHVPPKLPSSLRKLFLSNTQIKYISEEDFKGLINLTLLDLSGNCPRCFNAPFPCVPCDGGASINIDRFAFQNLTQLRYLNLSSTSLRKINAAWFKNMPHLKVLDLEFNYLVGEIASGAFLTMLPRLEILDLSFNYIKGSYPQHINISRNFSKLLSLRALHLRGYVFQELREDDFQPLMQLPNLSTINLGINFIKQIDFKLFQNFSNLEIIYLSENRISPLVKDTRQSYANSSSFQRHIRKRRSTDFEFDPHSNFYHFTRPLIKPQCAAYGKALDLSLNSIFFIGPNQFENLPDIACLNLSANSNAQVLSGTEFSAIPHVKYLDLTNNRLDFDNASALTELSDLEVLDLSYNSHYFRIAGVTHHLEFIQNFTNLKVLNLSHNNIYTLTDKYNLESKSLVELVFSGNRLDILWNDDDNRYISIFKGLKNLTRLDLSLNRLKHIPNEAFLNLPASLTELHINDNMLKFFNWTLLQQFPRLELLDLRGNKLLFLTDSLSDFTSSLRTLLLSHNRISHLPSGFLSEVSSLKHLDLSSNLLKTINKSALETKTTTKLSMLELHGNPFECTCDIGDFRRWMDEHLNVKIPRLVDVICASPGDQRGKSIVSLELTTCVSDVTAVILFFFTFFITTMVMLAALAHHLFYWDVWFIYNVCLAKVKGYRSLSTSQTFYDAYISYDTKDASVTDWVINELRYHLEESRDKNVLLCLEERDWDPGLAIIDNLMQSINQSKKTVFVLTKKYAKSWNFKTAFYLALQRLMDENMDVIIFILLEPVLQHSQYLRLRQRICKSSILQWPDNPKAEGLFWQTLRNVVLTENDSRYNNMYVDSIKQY

[1] = read-out: TLR9 IC50, HEK-Blue cells overexpressing human TLR9, ODN2006 5 nM stimulation, SEAP reporter
[2] = HEK-Blue cells overexpressing human TLR7, gardiquimod 7.5 μM stimulation, SEAP reporter
[3] = read-out: TLR8 IC50, HEK-Blue cells overexpressing human TLR8, R848 15.9 μM stimulation, SEAP reporter

SMILES	IC50 (human TLR9; TLR9 IC50, HEK-Blue human TLR9 cells, ODN2006 5 nM) [µM]	IC50 (human TLR7; HEK-Blue human TLR7 cells, gardiquimod 7.5 μM) [nM]	IC50 (human TLR8; TLR8 IC50, HEK-Blue human TLR8 cells, R848 15.9 μM) [nM]	IC50 (human TLR9; [1]) [µM]	IC50 (human TLR7; [2]) [nM]	IC50 (human TLR8; [3]) [nM]
COc1ccc(-c2[nH]c3ccc(C4CCN(C5CCN(CC(C)C)CC5)CC4)nc3c2C)cc1OC [Example 5, 2-(3,4-dimethoxyphenyl)-5-(1′-isobutyl-[1,4′-bipiperidin]-4-yl)-3-methyl-1H-pyrrolo[3,2-b]pyridine]	–	–	–	0.037	471	4060
CCN(CCN(C)C)C(=O)c1nc2c(C(C)C)c(-c3cc(OC)c4ncnn4c3)[nH]c2cc1C [Example 6, N-(2-(dimethylamino)ethyl)-N-ethyl-3-isopropyl-2-(8-methoxy-[1,2,4]triazolo[1,5-a]pyridin-6-yl)-6-methyl-1H-pyrrolo[3,2-b]pyridine-5-carboxamide]	–	–	–	0.625	0.3	3.2
CNC(=O)CNC1CCC(c2ccc3[nH]c(-c4cc(OC)c5ncnn5c4)c(C(C)C)c3n2)C1 (stereo not drawn) [Example 10, 2-((3-(3-isopropyl-2-(8-methoxy-[1,2,4]triazolo[1,5-a]pyridin-6-yl)-1H-pyrrolo[3,2-b]pyridin-5-yl)cyclopentyl)amino)-N-methylacetamide]	–	–	–	1.05	0.42	5.3
Cc1cc(-c2[nH]c3cc(F)c(C4CCNCC4)nc3c2C(C)C)cn2ncnc12 [Example 11, 6-(6-fluoro-3-isopropyl-5-(piperidin-4-yl)-1H-pyrrolo[3,2-b]pyridin-2-yl)-8-methyl-[1,2,4]triazolo[1,5-a]pyridine]	–	–	–	6.79	1.7	21
Cc1c(-c2[nH]c3ccc(N4CC(N(C)C)C4)nc3c2C(C)C)cn2ncnc2c1C [Example 12]	–	–	–	10.1	10	1.6
COc1cc(-c2[nH]c3ccc(N4CC(N)C4)nc3c2C(C)C)cn2ncnc12 [Example 16]	–	–	–	0.635	0.6	2.1
COc1cc(-c2[nH]c3ccc(N4CC(NC(=O)CN(C)C)C4)nc3c2C(C)C)cn2ncnc12 [Example 17]	–	–	–	1.1	3.7	7.7
COc1cc(-c2[nH]c3ccc(N4CC(NCC(=O)N(C)C)C4)nc3c2C(C)C)cn2ncnc12 [Example 18]	–	–	–	1.49	14	14
COc1cc(-c2[nH]c3ccc(N4CC(NCC(=O)N(C)C)C4)nc3c2C(C)C)cn2ncnc12 [Example 27]	–	–	–	> 50	> 3120	> 3120
COc1cc(-c2[nH]c3ccc(N4CC(N(C)C(=O)CN(C)C)C4)nc3c2C(C)C)cn2ncnc12 [Example 28]	–	–	–	> 50	263	1500
COc1cc(-c2[nH]c3ccc(N4CC(NC5CCOCC5)C4)nc3c2C(C)C)cn2ncnc12 [Example 29]	–	–	–	2.83	4.6	2.7
COc1cc(-c2[nH]c3ccc(N4CC(NCC5(C)COC5)C4)nc3c2C(C)C)cn2ncnc12 [Example 30]	–	–	–	22.6	70	43
CC(C)c1c(-c2cn(C)c3ncccc23)[nH]c2ccc(N3CC(N)C3)nc12 [Example 32]	–	–	–	1.88	7.3	6.9
CC(C)c1c(-c2cn(C)c3ncccc23)[nH]c2ccc(N3CC(NC4CCOCC4)C3)nc12 [Example 33]	–	–	–	1.92	6.5	1.9
CC(C)c1c(-c2cn(C)c3ncccc23)[nH]c2ccc(N3CC(NCC(=O)N(C)C)C3)nc12 [Example 34]	–	–	–	1.22	17	6
CC(C)c1c(-c2cn(C)c3ncccc23)[nH]c2ccc(N3CC(N)C3)nc12 [Example 35]	–	–	–	13.8	589	282
CC(C)c1c(-c2cn(C)c3ncccc23)[nH]c2ccc(N3CC(NC4CCOCC4)C3)nc12 [Example 36]	–	–	–	22.1	> 3120	> 3120
CC(C)c1c(-c2cn(C)c3ncccc23)[nH]c2ccc(N3CC(NCC(=O)N(C)C)C3)nc12 [Example 37]	–	–	–	> 50	1270	465
CC(C)c1c(-c2cn(C)c3ncccc23)[nH]c2ccc(N3CCC(N(CC#N)CC#N)CC3)nc12 [Example 51]	–	–	–	16.3	5.1	7

Now from value to molecule:

IC50 (human TLR9; TLR9 IC50, HEK-Blue human TLR9 cells, ODN2006 5 nM) [µM]	IC50 (human TLR7; HEK-Blue human TLR7 cells, gardiquimod 7.5 μM) [nM]	IC50 (human TLR8; TLR8 IC50, HEK-Blue human TLR8 cells, R848 15.9 μM) [nM]	IC50 (human TLR9; [1]) [µM]	IC50 (human TLR7; [2]) [nM]	IC50 (human TLR8; [3]) [nM]	SMILES
18	0.64	0.93	–	–	–	[2H]C([2H])([2H])N(C([2H])([2H])[2H])C([2H])([2H])C(=O)N1C([2H])([2H])C([2H])([2H])N(c2ccc3[nH]c(-c4cn5ncnc5c(C)c4C)c(C(C)C)c3n2)C([2H])([2H])C1([2H])[2H] (single isomer, unassigned) [Example 891]
–	–	–	7.73	20	3.8	Cc1c(-c2[nH]c3ccc(N4CC(NC5CCOCC5)C4)nc3c2C(C)C)cn2ncnc2c1C [Example 1, 1-(2-(7,8-dimethyl-[1,2,4]triazolo[1,5-a]pyridin-6-yl)-3-isopropyl-1H-pyrrolo[3,2-b]pyridin-5-yl)-N-(tetrahydro-2H-pyran-4-yl)azetidin-3-amine]
–	–	–	7.33	1.7	0.27	Cc1c(-c2[nH]c3ccc(N4CCNCC4)nc3c2C(C)C)cn2ncnc2c1C [Example 2, 6-(3-isopropyl-5-(piperazin-1-yl)-1H-pyrrolo[3,2-b]pyridin-2-yl)-7,8-dimethyl-[1,2,4]triazolo[1,5-a]pyridine]
–	–	–	5.02	3.2	1.9	COc1cc(-c2[nH]c3ccc(N4CC(N(C)C)C4)nc3c2C(C)C)cn2ncnc12 [Example 13]
–	–	–	4.33	11	4.2	Cc1c(-c2[nH]c3ccc(N4CC(N)C4)nc3c2C(C)C)cn2ncnc2c1C [Example 14]
–	–	–	1.94	7.3	4.3	Cc1c(-c2[nH]c3ccc(N4CC(NC(=O)CN(C)C)C4)nc3c2C(C)C)cn2ncnc2c1C [Example 15]
–	–	–	6.02	125	73	Cc1c(-c2[nH]c3ccc(N4CC(N(C)C(=O)CN(C)C)C4)nc3c2C(C)C)cn2ncnc2c1C [Example 19]
–	–	–	0.614	2.7	1.3	CNC1CN(c2ccc3[nH]c(-c4cn5ncnc5c(C)c4C)c(C(C)C)c3n2)C1 [Example 20]
–	–	–	> 50	91	46	Cc1c(-c2[nH]c3ccc(N4CC(N(C)CC(=O)N(C)C)C4)nc3c2C(C)C)cn2ncnc2c1C [Example 21]
–	–	–	21.1	56	12	Cc1c(-c2[nH]c3ccc(N4CC(NCC(=O)N(C)C)C4)nc3c2C(C)C)cn2ncnc2c1C [Example 22]
–	–	–	> 50	> 3120	> 3120	CNC1CN(c2ccc3[nH]c(-c4cn5ncnc5c(C)c4C)c(C(C)C)c3n2)C1 [Example 23]
–	–	–	14	40	2.7	Cc1c(-c2[nH]c3ccc(N4CC(N(C)C5CCOCC5)C4)nc3c2C(C)C)cn2ncnc2c1C [Example 24]
–	–	–	11.7	181	117	Cc1c(-c2[nH]c3ccc(N4CC(N(C)C(=O)CN(C)C)C4)nc3c2C(C)C)cn2ncnc2c1C [Example 25]
–	–	–	> 50	1770	2130	Cc1c(-c2[nH]c3ccc(N4CC(NCC(=O)N(C)C)C4)nc3c2C(C)C)cn2ncnc2c1C [Example 26]
–	–	–	6.06	13	19	CNC1CN(c2ccc3[nH]c(-c4cc(OC)c5ncnn5c4)c(C(C)C)c3n2)C1 [Example 31]
–	–	–	44.4	21	5.2	Cc1c(-c2[nH]c3ccc(N4CC(O)C4)nc3c2C(C)C)cn2ncnc2c1C [Example 38]
–	–	–	7.96	24	1.7	Cc1c(-c2[nH]c3ccc(N4CC(N5CCC(O)CC5)C4)nc3c2C(C)C)cn2ncnc2c1C [Example 40]
–	–	–	> 50	264	177	Cc1c(-c2[nH]c3ccc(N4CC(N5CCS(=O)(=O)CC5)C4)nc3c2C(C)C)cn2ncnc2c1C [Example 41]
–	–	–	> 50	178	57	COC(=O)N1CCN(C2CN(c3ccc4[nH]c(-c5cn6ncnc6c(C)c5C)c(C(C)C)c4n3)C2)CC1 [Example 42]
–	–	–	0.56	2	7.8	Cc1c(-c2[nH]c3ccc(N4CC5(CCNCC5)C4)nc3c2C(C)C)cn2ncnc2c1C [Example 43]
–	–	–	3.37	12	15	Cc1c(-c2[nH]c3ccc(N4CC5(CCN(CC(=O)N(C)C)CC5)C4)nc3c2C(C)C)cn2ncnc2c1C [Example 44]
–	–	–	7.28	22	20	Cc1c(-c2[nH]c3ccc(N4CC5(CCN(CCS(C)(=O)=O)CC5)C4)nc3c2C(C)C)cn2ncnc2c1C [Example 45]
–	–	–	1.68	4.3	4.9	Cc1c(-c2[nH]c3ccc(N4CC5(CCN(C(C)C)CC5)C4)nc3c2C(C)C)cn2ncnc2c1C [Example 46]
–	–	–	31.3	7.4	9.3	Cc1c(-c2[nH]c3ccc(N4CCC(N(Cc5c[nH]nn5)Cc5c[nH]nn5)CC4)nc3c2C(C)C)cn2ncnc2c1C [Example 48]
–	–	–	2.67	1	0.62	Cc1c(-c2[nH]c3ccc(N4CCC(NC5CCOCC5)CC4)nc3c2C(C)C)cn2ncnc2c1C [Example 49]
–	–	–	2.84	0.49	0.39	Cc1c(-c2[nH]c3ccc(N4CCC(N)CC4)nc3c2C(C)C)cn2ncnc2c1C [Example 50]
